Results from ChEMBL document CHEMBL6127070, “Design, synthesis, and molecular dynamic simulations of some novel benzo[d]thiazoles with anti-virulence activity against Pseudomonas aeruginosa” (Eur J Med Chem, 2024).
≈ marks a conversion by molar mass, not a printed value. Values belong to the compound of their own block, whether it stands above or below them. Calls of active or inactive are those of the source. The rule behind the calls is not given here.

Experiments:
Pseudomonas aeruginosa [1] = assay: Antivirulence activity in Pseudomonas aeruginosa assessed as inhibition of pyocyanin production at sub-MIC by chloroform-HCl extraction method relative to control; format: functional
Pseudomonas aeruginosa [2] = assay: Inhibition of biofilm formation in Pseudomonas aeruginosa at sub-MIC by crystal violet staining based analysis relative to control; format: functional
Pseudomonas aeruginosa [3] = assay: Antivirulence activity in Pseudomonas aeruginosa assessed as inhibition of pyocyanin production by measuring OD at […] at sub-MIC by chloroform-HCl extraction method relative to control; format: functional
Pseudomonas aeruginosa [4] = assay: Antibacterial activity against Pseudomonas aeruginosa by CLSI protocol based broth microdilution method; format: functional
Pseudomonas aeruginosa [5] = assay: Antivirulence activity in Pseudomonas aeruginosa assessed as inhibition of rhamnolipids production at sub-MIC by spectrophotometric method relative to control; format: functional
Pseudomonas aeruginosa [6] = assay: Antibacterial activity against Pseudomonas aeruginosa assessed as effect on bacterial growth at 16 microg/ml incubated for 24 hrs by growth curve analysis; format: functional, organism-based; details: dose 16.0 µg/ml
Pseudomonas aeruginosa [7] = assay: Antibacterial activity against Pseudomonas aeruginosa assessed as 1/4 MIC by CLSI protocol based broth microdilution method; format: functional
Pseudomonas aeruginosa [8] = assay: Inhibition of biofilm formation in Pseudomonas aeruginosa assessed as absorbance by measuring OD at 570 nm at sub-MIC by crystal violet staining based analysis (reference value: 0.635 +/- 0.014); format: functional
Pseudomonas aeruginosa [9] = assay: Inhibition of biofilm formation in Pseudomonas aeruginosa at MIC incubated for 48 hrs by crystal violet staining based analysis relative to control; format: functional
Pseudomonas aeruginosa [10] = assay: Inhibition of biofilm formation in Pseudomonas aeruginosa PAO1 at 64 microg/ml relative to control; format: functional
[11] = Inhibition of quorum sensing system in Pseudomonas aeruginosa PAO1 assessed as reduction in pyocyanin production at 256 microg/ml relative to control; details: dose 256.0 µg/ml
Pseudomonas aeruginosa [12] = assay: Antibacterial activity against Pseudomonas aeruginosa assessed as bacterial mortality in presence of ciprofloxacin relative to control; format: functional
Pseudomonas aeruginosa [13] = assay: Antibacterial activity against Pseudomonas aeruginosa assessed as bacterial mortality in presence of clarithromycin relative to control; format: functional
[14] = Inhibition of quorum sensing system in Pseudomonas aeruginosa MH602 transfected with lasB promoter expressing gfp-ASV at 250 uM incubated for 20 hrs by microplate reader analysis relative to control
[15] = Inhibition of quorum sensing system in Pseudomonas aeruginosa MH602 transfected with lasB promoter expressing gfp-ASV at 62.5 uM incubated for 20 hrs by microplate reader analysis relative to control
[16] = Inhibition of quorum sensing system in Pseudomonas aeruginosa MH602 transfected with lasB promoter expressing gfp-ASV at 125 uM incubated for 20 hrs by microplate reader analysis relative to control
[17] = Inhibition of quorum sensing system in Pseudomonas aeruginosa transfected with lasB-gfp reporter gene incubated for 20 hrs by fluorescence based multilabel plate reader analysis
Pseudomonas aeruginosa [18] = assay: Antibiofilm activity against Pseudomonas aeruginosa assessed as inhibition of biofilm biomass at 300 microg/ml measured after 48 hrs relative to control; format: functional
Pseudomonas aeruginosa [19] = assay: Inhibition of biofilm formation in Pseudomonas aeruginosa PAO1 at 50 uM incubated for 24 hrs by crystal violet staining based analysis relative to control; format: functional
[20] = Inhibition of quorum sensing system in Pseudomonas aeruginosa PAO1 transfected with lasB-gfp reporter gene incubated for >=12 hrs by fluorescence based microplate reader analysis

SMILES: CC[C@H]1OC(=O)[C@H](C)[C@@H](O[C@H]2C[C@@](C)(OC)[C@@H](O)[C@H](C)O2)[C@H](C)[C@@H](O[C@@H]2O[C@H](C)C[C@H](N(C)C)[C@H]2O)[C@](C)(O)C[C@@H](C)CN(C)[C@H](C)[C@@H](O)[C@]1(C)O [AZITHROMYCIN]
inhibition (INH) (Pseudomonas aeruginosa [1]): 51.5% | inhibition (INH) (Pseudomonas aeruginosa [2]): 21.7% | OD (Pseudomonas aeruginosa [3]): 0.216 | SubMIC (Pseudomonas aeruginosa [4]): 16 µg/mL | MIC (Pseudomonas aeruginosa [4]; Pseudomonas aeruginosa): 85.4 µM (≈ 64 µg/mL) | inhibition (INH) (Pseudomonas aeruginosa [5]): 47.4% | Activity (Pseudomonas aeruginosa [6]): inactive | MIC (Pseudomonas aeruginosa [7]): 20.1 µM (≈ 15.1 µg/mL) | OD (Pseudomonas aeruginosa [8]): 0.307

SMILES: COC(=O)c1ccc(/N=N/c2c(N)nn3c(N)c(C#N)c(-c4ccc(N(C)C)cc4)nc23)cc1
inhibition (INH) (Pseudomonas aeruginosa [9]): 69%

SMILES: COc1ccc(OCCCCCCCC(=O)NNC(=O)Cn2c(=O)oc3ncccc32)cc1
inhibition at 64 µg/mL (Pseudomonas aeruginosa [10]): 40% | inhibition [11]: 46.9% | mortality (Pseudomonas aeruginosa [12]): 48.27% | mortality (Pseudomonas aeruginosa [13]): 49.79%

inhibition [14]: 68.2% | inhibition [15]: 63.7% | inhibition [16]: 67.1%
SMILES: O=C(Cn1cc(-c2ccc([N+](=O)[O-])cc2)nn1)Nc1nc2ccccc2[nH]1

IC50 [17]: 45.5 µg/mL (≈ 132 µM)
SMILES: COc1ccc(C(=O)CSc2nc3ccccc3s2)c(OC)c1
inhibition at 300 µg/mL (Pseudomonas aeruginosa [18]): 70%

IC50 [20]: 2.08 µM
SMILES: [O-][S+](Cc1ccc(Cl)cc1)c1nc2cc(Cl)ccc2o1 (stereo unspecified)
inhibition at 50 µM (Pseudomonas aeruginosa [19]): 46.1%
